{"source": "the supplement of paper PMC11208160", "data": [{"experiment": "recombinant barcode read abundance after kanamycin selection (control-corrected) (log10(CPM+1)); higher = more efficient recombination; sequences stand for … in AGTGCAGAGAAAATCGGCCAGTTTTCTCTGCCTGCAGTCCGCATGCCGT…AGATTTATGCAGCGGACTGCCTTTCTCCCAAAGTGATAAACCGGACAGTATCATGGACCGGTTTTCCCGGTAATCCGTATTTGCAAGGTTGGTTTCACT; site = the 11-nt target", "summary_of_the_method": "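Each value is log10(CPM+1). It describes recombination efficiency, taken as averaged, control-corrected counts per million of barcodes at recombinant junctions. The pooled E. coli library paired targets with IS621 bridge RNA target-binding loops, was co-electroporated with a donor plasmid, and was plated twice on chloramphenicol/ampicillin LB agar (control) and twice on chloramphenicol/ampicillin/kanamycin containing 0.1 mM IPTG.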", "values": [{"sequence": "GTAAATCCTTGGGTTCTAACCTGTTGCCT (site CTAAATCCTAG)", "recombinant barcode read abundance (log10)": 0.222}, {"sequence": "GTCGCGCCTTGGGTTCTAACCTGTTGCCT (site GTCGCGTCTAG)", "recombinant barcode read abundance (log10)": 0.58}, {"sequence": "AGAGGGTCTTGGGTTCTAACCTGTTGCCT (site ATAGGGTCTAG)", "recombinant barcode read abundance (log10)": 0.765}, {"sequence": "GAGATCCCTTGGGTTCTAACCTGTTGCCT (site GTGATCCCTAG)", "recombinant barcode read abundance (log10)": 0.422}, {"sequence": "CCAGAAGCTTGGGTTCTAACCTGTTGCCT (site CCAGCAGCTAG)", "recombinant barcode read abundance (log10)": 0.222}, {"sequence": "AGCAGCTCTTGGGTTCTAACCTGTTGCCT (site AGGAGCGCTAG)", "recombinant barcode read abundance (log10)": 0.0136}, {"sequence": "AATGGGCCTTGGGTTCTAACCTGTTGCGT (site AATCGGCCTAC)", "recombinant barcode read abundance (log10)": 0.048}, {"sequence": "TCCGCTACTTGGGTTCTAACCTGTTGCCT (site TCCGCTTCTAG)", "recombinant barcode read abundance (log10)": 0.107}, {"sequence": "GACTTACCTTGGGTTCTAACCTGTTGCAT (site GACTTACCTAT)", "recombinant barcode read abundance (log10)": 1.18}, {"sequence": "CCTCACTCTTGGGTTCTAACCTGTTGCTT (site CCTCAGTCTAA)", "recombinant barcode read abundance (log10)": 0.00592}, {"sequence": "CCTTGTTCTTGGGTTCTAACCTGTTGCTA (site TCGTGTTCTTA)", "recombinant barcode read abundance (log10)": 0.149}, {"sequence": "GAAGGGCCTTGGGTTCTAACCTGTTGCCT (site GAAGGGCCTAG)", "recombinant barcode read abundance (log10)": 0.723}, {"sequence": "GATTGTCCTTGGGTTCTAACCTGTTGCTT (site GGTTGTCCTTA)", "recombinant barcode read abundance (log10)": 0.23}, {"sequence": "AGCAGGGCTTGGGTTCTAACCTGTTGCAG (site AGTAGGACTCT)", "recombinant barcode read abundance (log10)": 0.184}, {"sequence": "ACCCTGGCTTGGGTTCTAACCTGTTGCCT (site ACCCTGGCTAG)", "recombinant barcode read abundance (log10)": 0.816}, {"sequence": "CCTAAGACTTGGGTTCTAACCTGTTGCCA (site CCTAAGACTTG)", "recombinant barcode read abundance (log10)": 0}, {"sequence": "ACGTGTCCTTGGGTTCTAACCTGTTGCGG (site ACGTGTCCTCC)", "recombinant barcode read abundance (log10)": 1.88}, {"sequence": "AAGCCCTCTTGGGTTCTAACCTGTTGCTT (site AAGCCCTCTAA)", "recombinant barcode read abundance (log10)": 2.53}, {"sequence": "CTGATGTCTTGGGTTCTAACCTGTTGCCA (site CTGTTGTCTTG)", "recombinant barcode read abundance (log10)": 0.136}, {"sequence": "TATTTCTCTTGGGTTCTAACCTGTTGCCT (site CATTTCTCTAG)", "recombinant barcode read abundance (log10)": 0.0799}, {"sequence": "GCCCATCCTTGGGTTCTAACCTGTTGCTA (site GCCCATCCTTA)", "recombinant barcode read abundance (log10)": 1.36}, {"sequence": "ATATTGCCTTGGGTTCTAACCTGTTGCCT (site ATATTGCCTAG)", "recombinant barcode read abundance (log10)": 1.67}, {"sequence": "CTGGGGTCTTGGGTTCTAACCTGTTGCCT (site CTGGCGTCTAG)", "recombinant barcode read abundance (log10)": 0.36}, {"sequence": "ATGATACCTTGGGTTCTAACCTGTTGCAT (site CCTGGGACTTA)", "recombinant barcode read abundance (log10)": 0.243}, {"sequence": "ACGAGTACTTGGGTTCTAACCTGTTGCGG (site ACGAGTACTCC)", "recombinant barcode read abundance (log10)": 1.82}, {"sequence": "ACCAGAGCTTGGGTTCTAACCTGTTGCCT (site ACCAGAGCTAG)", "recombinant barcode read abundance (log10)": 0.823}, {"sequence": "CTTGAATCTTGGGTTCTAACCTGTTGCCT (site CTTTAATCTAG)", "recombinant barcode read abundance (log10)": 0.337}, {"sequence": "CTAGGAGCTTGGGTTCTAACCTGTTGCTT (site CTAGGAGCTTA)", "recombinant barcode read abundance (log10)": 0.0974}, {"sequence": "GTCCTATCTTGGGTTCTAACCTGTTGCCA (site GTCCTATCTTG)", "recombinant barcode read abundance (log10)": 0.66}, {"sequence": "GGGACTACTTGGGTTCTAACCTGTTGCGG (site GGGACTACTCC)", "recombinant barcode read abundance (log10)": 1.86}, {"sequence": "CGGGCCTCTTGGGTTCTAACCTGTTGCTC (site CGGGCCTCTGA)", "recombinant barcode read abundance (log10)": 1.23}, {"sequence": "TTGTGTTCTTGGGTTCTAACCTGTTGCTT (site TTGTGTTCTAA)", "recombinant barcode read abundance (log10)": 0.159}, {"sequence": "ACGACCGCTTGGGTTCTAACCTGTTGCCT (site ACGATCGCTAG)", "recombinant barcode read abundance (log10)": 0.245}, {"sequence": "ACCTGACCTTGGGTTCTAACCTGTTGCCT (site ACCTGTCCTAG)", "recombinant barcode read abundance (log10)": 0.0737}, {"sequence": "GATCGATCTTGGGTTCTAACCTGTTGCTT (site GATCGATCTAA)", "recombinant barcode read abundance (log10)": 0.349}, {"sequence": "GAGTGCTCTTGGGTTCTAACCTGTTGCAG (site GAGCGCTCTCT)", "recombinant barcode read abundance (log10)": 0.676}, {"sequence": "GATTGTCCTTGGGTTCTAACCTGTTGCTT (site GATTGTCCTAA)", "recombinant barcode read abundance (log10)": 0.294}, {"sequence": "CTTCAAGCTTGGGTTCTAACCTGTTGCCT (site CTGCAAGCTAG)", "recombinant barcode read abundance (log10)": 0.197}, {"sequence": "CCGCGGCCTTGGGTTCTAACCTGTTGCCT (site GCGCGGCCTAG)", "recombinant barcode read abundance (log10)": 0.0271}, {"sequence": "GCCGATCCTTGGGTTCTAACCTGTTGCCT (site GACGATCCTAG)", "recombinant barcode read abundance (log10)": 0.332}, {"sequence": "TCAAAGCCTTGGGTTCTAACCTGTTGCTG (site TCAGAGCCTCA)", "recombinant barcode read abundance (log10)": 0.372}, {"sequence": "CGAATGTCTTGGGTTCTAACCTGTTGCGT (site CGAATGTCTAC)", "recombinant barcode read abundance (log10)": 0.991}, {"sequence": "AGGAACCCTTGGGTTCTAACCTGTTGCTG (site AGGAACCCTGA)", "recombinant barcode read abundance (log10)": 0.106}, {"sequence": "GTATCTCCTTGGGTTCTAACCTGTTGCTT (site GTATTTCCTAA)", "recombinant barcode read abundance (log10)": 0.136}, {"sequence": "ACCTCAACTTGGGTTCTAACCTGTTGCCT (site ACATCAACTAG)", "recombinant barcode read abundance (log10)": 0.0721}, {"sequence": "CAGGGGACTTGGGTTCTAACCTGTTGCAC (site CAGGGGACTGT)", "recombinant barcode read abundance (log10)": 2.38}, {"sequence": "TCTAGACCTTGGGTTCTAACCTGTTGCCA (site TCTAGACCTTG)", "recombinant barcode read abundance (log10)": 0.0618}, {"sequence": "TCTCAGGCTTGGGTTCTAACCTGTTGCAG (site TATCAGACTCT)", "recombinant barcode read abundance (log10)": 0.0549}, {"sequence": "GCTAGGACTTGGGTTCTAACCTGTTGCTG (site CGGTCTGCTAT)", "recombinant barcode read abundance (log10)": 0.163}, {"sequence": "GAAGTCACTTGGGTTCTAACCTGTTGCCT (site TAAGTCACTAG)", "recombinant barcode read abundance (log10)": 1.6}, {"sequence": "GCTGAGACTTGGGTTCTAACCTGTTGCCG (site GCTGAGACTCG)", "recombinant barcode read abundance (log10)": 2.53}, {"sequence": "GCTTCGTCTTGGGTTCTAACCTGTTGCCT (site GCTTCGTCTAG)", "recombinant barcode read abundance (log10)": 0.393}, {"sequence": "ACGACCGCTTGGGTTCTAACCTGTTGCCT (site ACGAACGCTAG)", "recombinant barcode read abundance (log10)": 0.571}, {"sequence": "CTCTAGTCTTGGGTTCTAACCTGTTGCGT (site CTCTAGTCTAG)", "recombinant barcode read abundance (log10)": 0.125}, {"sequence": "TCCAGTACTTGGGTTCTAACCTGTTGCAT (site TCCGGTACTAT)", "recombinant barcode read abundance (log10)": 0.564}, {"sequence": "ATGGGCCCTTGGGTTCTAACCTGTTGCTG (site ATGGGCCCTGA)", "recombinant barcode read abundance (log10)": 0.127}, {"sequence": "CAGAAGTCTTGGGTTCTAACCTGTTGCTT (site ACACGTGCTTC)", "recombinant barcode read abundance (log10)": 0.0609}, {"sequence": "ACGTGTCCTTGGGTTCTAACCTGTTGCGG (site GGAGAGACTAT)", "recombinant barcode read abundance (log10)": 0.242}, {"sequence": "TCGAAGCCTTGGGTTCTAACCTGTTGCCT (site TCGAATCCTAG)", "recombinant barcode read abundance (log10)": 0.101}, {"sequence": "GTCACCGCTTGGGTTCTAACCTGTTGCCT (site GTCACCGCTAG)", "recombinant barcode read abundance (log10)": 2.08}, {"sequence": "ACGCAGTCTTGGGTTCTAACCTGTTGCCT (site ACGCAATCTAG)", "recombinant barcode read abundance (log10)": 0.313}, {"sequence": "GGATAGCCTTGGGTTCTAACCTGTTGCCT (site CGATAGCCTAG)", "recombinant barcode read abundance (log10)": 0.0205}, {"sequence": "CTTTAAGCTTGGGTTCTAACCTGTTGCTA (site CTTTAAGCTTA)", "recombinant barcode read abundance (log10)": 0.195}, {"sequence": "ATGAACACTTGGGTTCTAACCTGTTGCTG (site ATGAACACTCA)", "recombinant barcode read abundance (log10)": 1.95}, {"sequence": "CATCCTACTTGGGTTCTAACCTGTTGCGG (site CATCCTCCTCA)", "recombinant barcode read abundance (log10)": 0.0136}, {"sequence": "CAGAGAGCTTGGGTTCTAACCTGTTGCCT (site CTGAGAGCTAG)", "recombinant barcode read abundance (log10)": 0.132}, {"sequence": "GAGGACTCTTGGGTTCTAACCTGTTGCCT (site GAGGACTCTGG)", "recombinant barcode read abundance (log10)": 1.29}, {"sequence": "AATGGGCCTTGGGTTCTAACCTGTTGCGT (site AATGGGCCTAC)", "recombinant barcode read abundance (log10)": 2.4}, {"sequence": "ACCCTGGCTTGGGTTCTAACCTGTTGCCT (site ACTCTGGCTAG)", "recombinant barcode read abundance (log10)": 0.205}, {"sequence": "AGGTCACCTTGGGTTCTAACCTGTTGCCT (site AGGTCACCTAA)", "recombinant barcode read abundance (log10)": 0.0905}, {"sequence": "TATGTACCTTGGGTTCTAACCTGTTGCCT (site CATGTACCTAG)", "recombinant barcode read abundance (log10)": 0.234}, {"sequence": "ACCAGGACTTGGGTTCTAACCTGTTGCCG (site GAGCCTCCTAT)", "recombinant barcode read abundance (log10)": 0.091}, {"sequence": "ACATCTCCTTGGGTTCTAACCTGTTGCCT (site CCATCTCCTAG)", "recombinant barcode read abundance (log10)": 0.239}, {"sequence": "GGTTCACCTTGGGTTCTAACCTGTTGCAG (site GGTTCACCTCT)", "recombinant barcode read abundance (log10)": 1.05}, {"sequence": "GTTCCTACTTGGGTTCTAACCTGTTGCCT (site GTTCCTACTAG)", "recombinant barcode read abundance (log10)": 0.328}, {"sequence": "AGCCCTCCTTGGGTTCTAACCTGTTGCTT (site AGCCCTCCTCA)", "recombinant barcode read abundance (log10)": 0.667}, {"sequence": "GGGGTTCCTTGGGTTCTAACCTGTTGCAT (site GGGGTTCCTAG)", "recombinant barcode read abundance (log10)": 1.19}, {"sequence": "TTCAAACCTTGGGTTCTAACCTGTTGCCT (site TTCAAATCTAG)", "recombinant barcode read abundance (log10)": 0.115}, {"sequence": "AGTCATTCTTGGGTTCTAACCTGTTGCAT (site AGTCAGTCTAC)", "recombinant barcode read abundance (log10)": 0.166}, {"sequence": "GGTGACCCTTGGGTTCTAACCTGTTGCGG (site GGTCACCCTCC)", "recombinant barcode read abundance (log10)": 0.224}, {"sequence": "ACCTTACCTTGGGTTCTAACCTGTTGCGT (site ACCTTACCTCC)", "recombinant barcode read abundance (log10)": 0.504}, {"sequence": "TCCTAATCTTGGGTTCTAACCTGTTGCTT (site CGGGCTACTTG)", "recombinant barcode read abundance (log10)": 0.284}, {"sequence": "CGTGACCCTTGGGTTCTAACCTGTTGCGG (site GTGAGAACTTG)", "recombinant barcode read abundance (log10)": 0.072}, {"sequence": "TGTCCACCTTGGGTTCTAACCTGTTGCCT (site AGTCCACCTAG)", "recombinant barcode read abundance (log10)": 0.0595}, {"sequence": "TATTTCTCTTGGGTTCTAACCTGTTGCCT (site AATTTCTCTAG)", "recombinant barcode read abundance (log10)": 0.0527}, {"sequence": "TAGGATACTTGGGTTCTAACCTGTTGCAC (site TAGGATACTCT)", "recombinant barcode read abundance (log10)": 0.729}]}]}
